Reference: ChEMBL document CHEMBL1140183, “Bornyl- and isobornyl-Delta8-tetrahydrocannabinols: a novel class of cannabinergic ligands” (J Med Chem, 2008)

Legend:
Cannabinoid receptor 1 = Cannabinoid receptor 1 (Rattus norvegicus, UniProt P20272); assay: Displacement of [3H]CP-55940 from CB1 receptor in rat brain synaptosome membrane; format: cell membranes
Cannabinoid receptor 2 = Cannabinoid receptor 2 (Mus musculus, UniProt P47936); assay: Displacement of [3H]CP-55940 from CB2 receptor in mouse spleen membrane; format: cell membranes
Chain of Cannabinoid receptor 2 (P47936 whole entry): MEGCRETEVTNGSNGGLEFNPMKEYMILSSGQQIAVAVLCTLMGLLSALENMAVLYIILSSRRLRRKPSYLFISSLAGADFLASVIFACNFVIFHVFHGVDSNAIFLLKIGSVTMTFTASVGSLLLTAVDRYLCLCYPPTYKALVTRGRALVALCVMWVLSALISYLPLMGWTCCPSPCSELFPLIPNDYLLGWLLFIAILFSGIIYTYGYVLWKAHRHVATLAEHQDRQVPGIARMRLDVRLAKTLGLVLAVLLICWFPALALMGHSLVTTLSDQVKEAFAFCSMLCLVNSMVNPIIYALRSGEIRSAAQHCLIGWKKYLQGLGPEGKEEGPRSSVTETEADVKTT

Chain of Cannabinoid receptor 1 (P20272 whole entry): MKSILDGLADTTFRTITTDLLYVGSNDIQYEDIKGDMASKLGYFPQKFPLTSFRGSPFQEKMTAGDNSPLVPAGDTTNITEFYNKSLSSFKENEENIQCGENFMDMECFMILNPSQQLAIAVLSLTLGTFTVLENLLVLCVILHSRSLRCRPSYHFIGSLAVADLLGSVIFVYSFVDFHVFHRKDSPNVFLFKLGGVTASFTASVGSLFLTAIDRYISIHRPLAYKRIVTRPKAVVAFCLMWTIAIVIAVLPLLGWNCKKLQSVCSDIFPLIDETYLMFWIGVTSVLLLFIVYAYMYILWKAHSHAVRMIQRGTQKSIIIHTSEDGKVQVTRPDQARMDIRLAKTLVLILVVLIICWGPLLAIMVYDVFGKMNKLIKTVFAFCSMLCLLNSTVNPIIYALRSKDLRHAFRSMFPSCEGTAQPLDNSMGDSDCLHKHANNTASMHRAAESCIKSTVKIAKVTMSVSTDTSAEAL

SMILES | Ki (Cannabinoid receptor 1) [µM] | Ki (Cannabinoid receptor 2) [µM]
CC1=CC[C@@H]2[C@@H](C1)c1c(O)cc([C@@H]3C[C@@H]4CC[C@]3(C)C4(C)C)cc1OC2(C)C | 0.0602 | 0.0061
CC1=CC[C@@H]2[C@@H](C1)c1c(O)cc([C@H]3C[C@@H]4CC[C@]3(C)C4(C)C)cc1OC2(C)C | 0.0089 | 0.0074
CC1=CC[C@@H]2[C@@H](C1)c1c(ccc(C[C@@H]3C[C@@H]4CC[C@]3(C)C4(C)C)c1O)OC2(C)C | 0.049 | 0.0495
CC1=CC[C@@H]2[C@@H](C1)c1c(ccc(C[C@H]3C[C@@H]4CC[C@]3(C)C4(C)C)c1O)OC2(C)C | 0.0327 | 0.0305
